“Also recorded” adds a separate entry of the source.

Assay type in all cases: cell-based, influenza A
One experiment has as its system G147R NA-only VLPs.
Experiment [1] relates to WT HA/G147R NA virus.
The subject of experiment [2] is WT HA/G147R NA virus. This is another data set of the same source.
Experiment [3] deals with PassMut HA/G147R NA virus.
Experiment [4] has as its system PassMut HA/G147R NA virus. This is another data set of the same source.

For oseltamivir, the “oseltamivir concentration down to which agglutination was inhibited” value was determined as 0.12 nM in the experiment on G147R NA-only VLPs and 1.5 nM in experiment [3]. Also, the “reversal of agglutination by G147R VLPs” value in the experiment with G147R NA-only VLPs is given as “reversed the agglutination”. Besides, the results for the “neutralization of infectivity (percent infectivity remaining)” value (in the experiment with WT HA/G147R NA virus [1]; in experiment [4]) were “partially neutralized by oseltamivir; also recorded: intermediate phenotype” and “nearly completely neutralized by oseltamivir; also recorded: strongly neutralized at low nanomolar oseltamivir concentrations”, respectively. In the experiment on WT HA/G147R NA virus [2], the “inhibition of agglutination by oseltamivir” value is “uninhibited at all oseltamivir concentrations tested”.
